Measured values from patent US6638910B2, “Compositions and methods for controlling plant pests” (priority 1997, dated 2003).
Like-named read-outs stand apart in the source and are kept apart here. Starred links: 1 amine or outer side, 2 acyl side, 3 side chain; linkers in the order of their positions; H or OH if unused. Positions of bridges follow the written chain, without caps; N, C: chain ends. Non-standard residues stand in square brackets, D forms with d. Residues, ends and D or L forms follow the SMILES beside them. X1 = CC(C)CCCCCCCCC[C@H](CC(=O)[*:1])O[*:2]

Assays:
[1] = system: fungi including Penicillium chrysogenum; settings: Peypoux et al. (1978) Tetrahedron 34:1147-1152; cited from earlier work
Saccharomyces cerevesiae = settings: Beeson et al. (1979) J. Antibiotics 32(8):828-833; cited from earlier work
Phytophthora infestans = format: in vivo; settings: Tomato
Plasmopara viticola = test: Greenhouse test, grape downy mildew; settings: Chardonnay grape
Pyricularia oryzae = format: in vivo; settings: Rice
Rhizoctonia solani = test: Greenhouse test, Sheath Blight on Rice; format: in vivo
Uncinula necator = test: Greenhouse test, Powdery Mildew on Grape; format: in vivo
Botrytis cinerea = test: Greenhouse test, Gray Mold on Pepper; format: in vivo
E. graminis = test: Greenhouse test, Powdery Mildew on Wheat; format: in vivo, Erysiphe graminis f. sp. graminis
[2] = system: pre-adult beet armyworms (Spodoptera exigua); test: 96-well microplate insecticidal assay, score rating; format: in vivo; settings: Table 16; score 1 (all dead or stunted) to 4 (no dead)
Experimental: (§1) Bacillus samples were grown in a Bacillus culture media. […] One day old streaked cultures were used to inoculate 250 mL baffled shake flasks. Flasks were shaken at 200 rpm at 29° C. for 5 days. To assay insecticidal activity, 35 mL of culture broth were centrifuged at 5,200 rpm for 20 minutes and the supernatant used in microassay described below. Assays were performed in 96-well microplates. […] To assay insecticidal activity, an agar substrate was prepared for the wells of the microplate according to Marrone et al. (1985), J. Econ. Entomol. 78: 290-293. […] Deionized water was used as a negative control. Two replicates of test sample or control were used for each assay. 40 μL of supernatant sample or whole broth grown in medium 1, 2 or 3 were dispensed into each sample well. Plates were then placed in a fume hood to dry for approximately 2-3 hours until the agar solution was dried. […] The microplate was sealed with an airtight substance such as Mylar®, and each well ventilated with a pin press. The plates were incubated at 27° C. for up to 7 days. After incubation, wells were scored by noting neonate mortality or the degree of larval development. […] Scores were averaged among replicates within each sample. […] It contained the same ingredients as medium 3 without proflo cotton seed extract. All other procedures were the same as above. The test was repeated two or three times.

[3] = system: pre-adult corn rootworms (Diabrotica undecimpunctata); test: as above; format: in vivo; settings: Table 16; score 1 (all dead or stunted) to 4 (no dead)
Experimental: as §1

[4] = system: N2 strain of the nematode Caenorhabditis elegans; test: 96-well microplate nematicidal assay, score rating; format: in vivo; settings: Table 16; score 1 (all dead or stunted) to 4 (no dead)

Iturin-C
activity against fungi [1]: inactive

mycosubtilin
LC50 (Saccharomyces cerevesiae): 10 µg/mL

iturin-A
LC50 (Saccharomyces cerevesiae): 30 µg/mL

COCC(=O)N(c1c(C)cccc1C)C(C)C(=O)OC (stereo not shown) [Metalaxyl]
percent disease control, P. infestans (Phytophthora infestans; 10 ppm): 77% | percent disease control, P. infestans (Phytophthora infestans; 30 ppm): 100% | percent disease control (Plasmopara viticola; 1 ppm): 80% control | percent disease control (Plasmopara viticola; 10 ppm): 98.3% control | percent disease control (Plasmopara viticola; 30 ppm): 100% control

O=C(Nc1ccccc1)N(Cc1ccc(Cl)cc1)C1CCCC1 [Pencycuron]
percent disease control, P. oryzae (Pyricularia oryzae; 10 ppm): 100% | percent disease control, P. oryzae (Pyricularia oryzae; 50 ppm): 100%

CCCCNC(=O)n1c(NC(=O)OC)nc2ccccc21 [Benomyl]
percent disease control, R. solani (Rhizoctonia solani; 40 ppm): 77% | percent disease control, R. solani (Rhizoctonia solani; 100 ppm): 100%

CCCCC(C#N)(Cn1cncn1)c1ccc(Cl)cc1 (stereo not shown) [Myclobutanil]
percent disease control, U. necator (Uncinula necator; 10 ppm): 100% | percent disease control, U. necator (Uncinula necator; 30 ppm): 100%

CCCC1COC(Cn2cncn2)(c2ccc(Cl)cc2Cl)O1 (stereo not shown) [Propiconazole]
percent disease control, B. cinerea (Botrytis cinerea; 5 ppm): 57% | percent disease control, B. cinerea (Botrytis cinerea; 10 ppm): 87% | percent disease control, E. graminis (E. graminis; 0.2 ppm): 54% | percent disease control, E. graminis (E. graminis; 0.5 ppm): 100%

bacillomycin L
LC50 (Saccharomyces cerevesiae): 30 µg/mL

CC(C)CCCCCCCCC[C@@H]1CC(=O)N[C@@H](CCC(=O)O)C(=O)N[C@@H](CC(C)C)C(=O)N[C@H](CC(C)C)C(=O)N[C@@H](C(C)C)C(=O)N[C@@H](CC(=O)O)C(=O)N[C@H](CC(C)C)C(=O)N[C@@H](CC(C)C)C(=O)O1 [Surfactin] (EL[dL]VD[dL]L; linker N-C via X1)
Activity score, Beet armyworm [2]: 4.0 | Activity score, Corn rootworm [3]: 2.0 | Activity score, C. Elegans [4]: 4.0
